Reference: paper PMC9337991 (2022)

Test system: tandem Na+ and c-di-AMP riboswitch (DUF1646_cdA_WT transcript) (RNA, riboswitch) AUUUAUAAGGUUACUUUCGGUUGGAAUGGUUAUUACCAUUUUCAAGAGAAGCGGGCUCUGGGGUGGGAGGCUACCAAAUAUUGGUAUAGCUAUCCACCUUUAUUUAUUUUUUUUAAGACAACAACUGAAUAUAUUUAUACGCUGAAUCCGUUAGGAACGGGAGACCCAAAUAAUAGGGGUGAAUCCAAAGCGGUUGCUUUGGUAGGGUUAAGCUCUUUCGACCCGAAUCCGUCAGCUAAUCUCGUAAGCGGUGGAAGAGAAGGUGAUUGAUAUGCUUAAUUACACCUUUAGUUAAGGUAUAUAUUUUAGCAUACGCUGCAGAUACUUCUCUGCAGCUUUUUGUUUUAUAUACCACAAAUGUUGAGGAUGACAAUCUUCAAUGAGAAUCUGAAGGAGGAAUUAAAUAAUAUGGGAUCCAAAGGA
Assay: in vitro single-round transcription termination
Conditions: K+ 100 mM, Mg2+ 4 mM; 40 mM Tris-HCl pH 7.5, 37 °C; E. coli RNA polymerase; functional co-transcriptional response, no constant

Q: `Nc1ncnc2c1ncn2[C@@H]1O[C@@H]2COP(=O)(O)O[C@H]3[C@@H](O)[C@H](n4cnc5c(N)ncnc54)O[C@@H]3COP(=O)(O)O[C@H]2[C@H]1O` was tested. Which binding did it give?
A: The binding was “yes”.
